Experimental data as given in ChEMBL document CHEMBL5465560, “Selectivity Literature for EUbOPEN Chemogenomic Library” (2024).

Columns and labels:
[1] = biological target: Casein kinase I isoform delta (Homo sapiens, UniProt P48730); experiment: Selectivity interaction (SelectScreen profiling (Invitrogen)) EUB0000607a CSNK1D; details: at 2 µM
[2] = biological target: T1, Inhibitor of nuclear factor kappa-B kinase subunit alpha (Homo sapiens) (UniProt O15111); experiment: Selectivity interaction (KinomeScan (DiscoverX)) EUB0000607a CHUK; details: at 10 µM
T1 sequence (whole entry): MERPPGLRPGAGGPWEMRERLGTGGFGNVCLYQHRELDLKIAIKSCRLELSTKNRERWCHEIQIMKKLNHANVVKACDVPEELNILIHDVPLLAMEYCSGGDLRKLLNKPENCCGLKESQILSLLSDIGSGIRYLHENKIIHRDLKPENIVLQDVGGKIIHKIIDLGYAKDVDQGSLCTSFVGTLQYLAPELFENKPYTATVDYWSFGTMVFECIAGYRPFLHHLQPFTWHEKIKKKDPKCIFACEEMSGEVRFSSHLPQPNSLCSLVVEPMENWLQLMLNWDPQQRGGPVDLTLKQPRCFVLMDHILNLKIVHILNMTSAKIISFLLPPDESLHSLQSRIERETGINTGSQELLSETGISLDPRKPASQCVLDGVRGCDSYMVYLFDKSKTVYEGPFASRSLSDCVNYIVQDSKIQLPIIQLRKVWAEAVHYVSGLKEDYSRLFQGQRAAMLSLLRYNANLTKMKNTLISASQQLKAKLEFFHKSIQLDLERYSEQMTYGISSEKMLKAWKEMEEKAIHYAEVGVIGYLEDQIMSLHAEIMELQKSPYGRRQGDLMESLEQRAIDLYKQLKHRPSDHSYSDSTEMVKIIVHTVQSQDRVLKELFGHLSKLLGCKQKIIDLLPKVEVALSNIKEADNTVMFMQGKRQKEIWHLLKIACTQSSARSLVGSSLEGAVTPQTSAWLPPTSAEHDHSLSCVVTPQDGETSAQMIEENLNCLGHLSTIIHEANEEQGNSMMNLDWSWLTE

[3] = Selectivity interaction (KinomeScan (DiscoverX)) EUB0000045b PKNB
[4] = biological target: Cyclin-dependent kinase 15 (Homo sapiens) (UniProt Q96Q40); experiment: Selectivity interaction (KinomeScan (DiscoverX)) EUB0000595a CDK15; details: at 10 µM
Chain of Cyclin-dependent kinase 15 (Homo sapiens) (Q96Q40 whole entry): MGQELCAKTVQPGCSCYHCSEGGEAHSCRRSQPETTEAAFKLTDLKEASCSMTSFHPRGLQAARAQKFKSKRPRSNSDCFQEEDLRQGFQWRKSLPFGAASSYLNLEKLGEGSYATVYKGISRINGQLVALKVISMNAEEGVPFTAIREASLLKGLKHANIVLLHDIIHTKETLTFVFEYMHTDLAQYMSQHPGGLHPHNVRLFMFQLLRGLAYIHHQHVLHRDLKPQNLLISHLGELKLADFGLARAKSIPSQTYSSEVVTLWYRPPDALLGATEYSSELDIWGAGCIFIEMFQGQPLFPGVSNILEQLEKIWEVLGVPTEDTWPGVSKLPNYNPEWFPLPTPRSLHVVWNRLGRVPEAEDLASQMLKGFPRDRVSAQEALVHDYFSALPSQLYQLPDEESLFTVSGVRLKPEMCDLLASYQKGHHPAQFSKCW

[5] = biological target: T2, Mitogen-activated protein kinase 12 (Homo sapiens) (UniProt P53778); experiment: Selectivity interaction (Kinase panel (Invitrogen)) EUB0000639a MAPK12; details: at 200 nM
T2 sequence (whole entry): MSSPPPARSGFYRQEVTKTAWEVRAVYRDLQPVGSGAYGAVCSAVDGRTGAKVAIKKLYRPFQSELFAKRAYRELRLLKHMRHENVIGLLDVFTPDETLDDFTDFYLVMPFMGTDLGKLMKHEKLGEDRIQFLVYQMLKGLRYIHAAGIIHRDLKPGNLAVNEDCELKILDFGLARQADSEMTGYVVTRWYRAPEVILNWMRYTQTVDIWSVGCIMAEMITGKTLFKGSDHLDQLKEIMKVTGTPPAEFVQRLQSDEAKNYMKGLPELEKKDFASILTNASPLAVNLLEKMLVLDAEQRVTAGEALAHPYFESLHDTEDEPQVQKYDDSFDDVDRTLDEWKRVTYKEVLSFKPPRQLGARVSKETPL

[6] = tested on: Tyrosine-protein kinase ABL1 (Homo sapiens), P00519 [F317I]; experiment: Selectivity interaction (KinomeScan (DiscoverX)) EUB0000666a ABL1; details: at 10 µM
Chain of Tyrosine-protein kinase ABL1 (Homo sapiens), P00519 [F317I] (P00519 whole entry F317I, canonical isoform): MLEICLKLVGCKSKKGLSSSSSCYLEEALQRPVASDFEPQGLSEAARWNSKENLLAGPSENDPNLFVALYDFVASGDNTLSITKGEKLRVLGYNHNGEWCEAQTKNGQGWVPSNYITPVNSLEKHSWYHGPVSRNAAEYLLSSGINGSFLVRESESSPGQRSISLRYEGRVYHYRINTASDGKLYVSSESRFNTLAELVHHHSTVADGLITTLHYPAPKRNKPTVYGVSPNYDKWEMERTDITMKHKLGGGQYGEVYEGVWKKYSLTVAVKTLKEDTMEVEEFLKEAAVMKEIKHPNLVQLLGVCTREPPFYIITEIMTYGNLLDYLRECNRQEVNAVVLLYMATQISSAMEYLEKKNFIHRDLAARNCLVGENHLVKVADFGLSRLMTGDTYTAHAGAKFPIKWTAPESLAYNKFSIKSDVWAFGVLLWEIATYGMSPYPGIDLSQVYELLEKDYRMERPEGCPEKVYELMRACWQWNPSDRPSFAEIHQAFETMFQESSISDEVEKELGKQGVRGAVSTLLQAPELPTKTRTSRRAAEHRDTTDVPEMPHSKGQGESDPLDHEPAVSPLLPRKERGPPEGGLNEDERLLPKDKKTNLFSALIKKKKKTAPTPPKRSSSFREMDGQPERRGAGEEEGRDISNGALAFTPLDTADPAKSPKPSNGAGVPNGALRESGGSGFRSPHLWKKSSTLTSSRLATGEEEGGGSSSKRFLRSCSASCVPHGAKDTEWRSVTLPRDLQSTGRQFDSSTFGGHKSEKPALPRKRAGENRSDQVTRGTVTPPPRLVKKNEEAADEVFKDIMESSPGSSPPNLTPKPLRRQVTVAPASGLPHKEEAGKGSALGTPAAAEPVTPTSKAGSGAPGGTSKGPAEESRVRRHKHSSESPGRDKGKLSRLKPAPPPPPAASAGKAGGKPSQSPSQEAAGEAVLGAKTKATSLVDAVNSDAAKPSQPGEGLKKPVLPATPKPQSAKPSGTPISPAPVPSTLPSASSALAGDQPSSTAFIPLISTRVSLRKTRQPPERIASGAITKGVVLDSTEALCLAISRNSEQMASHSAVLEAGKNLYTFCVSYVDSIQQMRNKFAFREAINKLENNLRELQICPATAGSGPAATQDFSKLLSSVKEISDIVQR

[7] = biological target: Phosphatidylinositol 4,5-bisphosphate 3-kinase catalytic subunit beta isoform (Homo sapiens) (UniProt P42338); experiment: Selectivity interaction (KinomeScan (DiscoverX)) EUB0000666a PIK3CB; details: at 10 µM
Chain of Phosphatidylinositol 4,5-bisphosphate 3-kinase catalytic subunit beta isoform (Homo sapiens) (P42338 whole entry, looked up, canonical isoform): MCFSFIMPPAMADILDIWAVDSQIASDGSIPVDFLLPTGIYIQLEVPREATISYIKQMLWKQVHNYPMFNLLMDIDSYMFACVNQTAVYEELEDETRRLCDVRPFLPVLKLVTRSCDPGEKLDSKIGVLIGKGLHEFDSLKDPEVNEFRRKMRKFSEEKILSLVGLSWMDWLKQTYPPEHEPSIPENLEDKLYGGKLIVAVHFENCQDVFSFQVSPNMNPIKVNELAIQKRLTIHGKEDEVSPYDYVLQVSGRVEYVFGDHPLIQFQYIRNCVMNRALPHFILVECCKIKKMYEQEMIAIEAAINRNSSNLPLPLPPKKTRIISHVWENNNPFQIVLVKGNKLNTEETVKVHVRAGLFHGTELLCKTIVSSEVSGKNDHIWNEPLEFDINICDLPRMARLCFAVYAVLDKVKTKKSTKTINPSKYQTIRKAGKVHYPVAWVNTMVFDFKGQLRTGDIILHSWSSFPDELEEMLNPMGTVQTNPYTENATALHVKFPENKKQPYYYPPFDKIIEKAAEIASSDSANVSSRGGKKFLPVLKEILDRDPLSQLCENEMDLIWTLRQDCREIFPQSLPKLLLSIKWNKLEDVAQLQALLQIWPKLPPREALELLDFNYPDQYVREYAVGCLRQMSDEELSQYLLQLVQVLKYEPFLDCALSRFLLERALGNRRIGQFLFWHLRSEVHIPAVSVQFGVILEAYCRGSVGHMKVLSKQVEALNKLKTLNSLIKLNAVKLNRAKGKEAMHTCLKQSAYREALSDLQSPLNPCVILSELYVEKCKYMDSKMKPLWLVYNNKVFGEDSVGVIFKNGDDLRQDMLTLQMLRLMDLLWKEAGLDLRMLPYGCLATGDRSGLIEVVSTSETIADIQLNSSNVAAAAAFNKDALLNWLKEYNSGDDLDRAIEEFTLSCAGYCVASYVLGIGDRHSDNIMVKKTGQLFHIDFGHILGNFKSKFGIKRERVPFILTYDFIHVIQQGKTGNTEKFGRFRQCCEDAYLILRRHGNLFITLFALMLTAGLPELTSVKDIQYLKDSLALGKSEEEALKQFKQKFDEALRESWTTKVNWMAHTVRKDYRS

[8] = biological target: T3, Mitogen-activated protein kinase kinase kinase 5 (Homo sapiens) (UniProt Q99683); experiment: Selectivity interaction (KinomeScan (DiscoverX)) EUB0000092b MAP3K5; details: at 10 µM
T3 sequence (whole entry): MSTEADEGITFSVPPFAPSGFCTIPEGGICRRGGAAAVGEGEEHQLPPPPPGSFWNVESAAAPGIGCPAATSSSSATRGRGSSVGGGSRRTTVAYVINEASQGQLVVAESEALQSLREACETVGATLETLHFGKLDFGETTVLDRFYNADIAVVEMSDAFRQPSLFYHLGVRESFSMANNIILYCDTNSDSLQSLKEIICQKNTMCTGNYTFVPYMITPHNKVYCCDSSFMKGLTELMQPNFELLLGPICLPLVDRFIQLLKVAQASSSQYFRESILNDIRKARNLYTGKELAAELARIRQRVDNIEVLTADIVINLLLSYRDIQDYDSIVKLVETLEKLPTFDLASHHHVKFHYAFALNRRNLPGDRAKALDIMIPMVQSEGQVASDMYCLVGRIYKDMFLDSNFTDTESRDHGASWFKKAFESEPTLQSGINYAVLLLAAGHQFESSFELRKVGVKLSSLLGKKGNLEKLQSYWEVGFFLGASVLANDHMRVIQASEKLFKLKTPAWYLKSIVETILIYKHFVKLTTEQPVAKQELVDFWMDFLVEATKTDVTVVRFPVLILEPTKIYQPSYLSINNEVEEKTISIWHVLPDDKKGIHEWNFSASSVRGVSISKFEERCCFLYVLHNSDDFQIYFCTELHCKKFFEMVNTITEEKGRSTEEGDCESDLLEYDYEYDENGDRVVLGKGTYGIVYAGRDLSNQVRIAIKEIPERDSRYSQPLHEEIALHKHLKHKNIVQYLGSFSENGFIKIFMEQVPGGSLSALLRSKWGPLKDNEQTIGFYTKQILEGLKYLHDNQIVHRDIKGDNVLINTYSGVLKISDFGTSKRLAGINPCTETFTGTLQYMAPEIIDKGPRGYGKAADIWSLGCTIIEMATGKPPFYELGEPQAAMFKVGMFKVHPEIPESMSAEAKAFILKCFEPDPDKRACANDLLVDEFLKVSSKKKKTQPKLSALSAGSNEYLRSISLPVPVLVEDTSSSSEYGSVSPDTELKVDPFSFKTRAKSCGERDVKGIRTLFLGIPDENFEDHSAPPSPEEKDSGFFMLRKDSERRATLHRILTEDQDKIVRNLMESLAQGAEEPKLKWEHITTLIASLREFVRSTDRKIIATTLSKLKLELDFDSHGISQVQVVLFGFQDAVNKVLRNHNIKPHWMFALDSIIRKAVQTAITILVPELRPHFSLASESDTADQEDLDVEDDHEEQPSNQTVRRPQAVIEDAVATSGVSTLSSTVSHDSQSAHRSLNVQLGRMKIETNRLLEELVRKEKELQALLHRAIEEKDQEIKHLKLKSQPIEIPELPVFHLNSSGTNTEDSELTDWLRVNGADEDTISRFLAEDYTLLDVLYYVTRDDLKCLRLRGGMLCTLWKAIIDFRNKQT

[9] = biological target: Cyclin-dependent kinase 1 (Homo sapiens) (UniProt P06493); experiment: Selectivity interaction (Kinase screening (Nanosyn)) EUB0000604a CDK1
Chain of Cyclin-dependent kinase 1 (Homo sapiens) (P06493 whole entry, looked up): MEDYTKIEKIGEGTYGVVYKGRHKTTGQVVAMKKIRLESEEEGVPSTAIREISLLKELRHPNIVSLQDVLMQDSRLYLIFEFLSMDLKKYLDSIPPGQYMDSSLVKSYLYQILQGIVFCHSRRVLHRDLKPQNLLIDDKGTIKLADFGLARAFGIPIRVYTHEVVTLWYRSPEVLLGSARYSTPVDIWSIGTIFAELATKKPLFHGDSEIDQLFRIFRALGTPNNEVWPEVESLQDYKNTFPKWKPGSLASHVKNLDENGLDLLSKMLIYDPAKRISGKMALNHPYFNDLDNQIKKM

Chain of Casein kinase I isoform delta (P48730 whole entry, looked up, canonical isoform): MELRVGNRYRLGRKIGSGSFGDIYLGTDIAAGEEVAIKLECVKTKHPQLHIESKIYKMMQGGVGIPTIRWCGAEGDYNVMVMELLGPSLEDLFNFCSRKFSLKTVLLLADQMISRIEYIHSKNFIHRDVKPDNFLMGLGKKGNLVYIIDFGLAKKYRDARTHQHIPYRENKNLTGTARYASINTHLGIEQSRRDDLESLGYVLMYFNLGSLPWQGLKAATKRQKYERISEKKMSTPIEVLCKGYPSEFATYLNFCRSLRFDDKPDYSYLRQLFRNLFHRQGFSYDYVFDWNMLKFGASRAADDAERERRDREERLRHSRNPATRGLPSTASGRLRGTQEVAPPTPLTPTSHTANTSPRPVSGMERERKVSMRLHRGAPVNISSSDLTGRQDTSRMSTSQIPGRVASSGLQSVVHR

Question: Which % of inhibition [1] does the source give for CNC(=O)Nc1ccc(-c2nc(N3CC4CCC(C3)O4)c3cnn(C4CCC5(CC4)OCCO5)c3n2)cc1 here?
Answer: 2%

Question: And the % of control [2]?
Answer: 100%

Question: With C=CC(=O)Nc1cc(-n2c(=O)ccc3cnc4ccc(-c5ccc(NS(C)(=O)=O)cc5)cc4c32)ccc1C as the compound, how does the % of control ([3]; at 1 µM) read?
Answer: 41%

Question: And the % of control ([3]; at 10 µM)?
Answer: 90%

Question: With COCC(=O)NC/C=C/c1ccc2ncnc(Nc3ccc(Oc4ccc(C)nc4)c(C)c3)c2c1 [CP-724714] as the compound, how does the % of control [4] read?
Answer: 71%

Question: With CC[C@@H]1[C@H](F)C(=O)N[C@@H]1COc1nccc2cc(C(N)=O)c(OC)cc12 [ZIMLOVISERTIB] as the compound, how does the % of inhibition [5] read?
Answer: 7.12%

Question: What does the source list for O=C(NOC[C@H](O)CO)c1ccc(F)c(F)c1Nc1ccc(I)cc1F?
Answer: % of control [6]: 100%; % of control [7]: 100%

Question: Which % of control [8] does the source give for CCC(=O)N1CCN(c2ccc(-n3c(=O)ccc4cnc5ccc(-c6cnc7ccccc7c6)cc5c43)cc2C(F)(F)F)CC1 here?
Answer: 100%

Question: For Cc1cnc(Nc2ccc(F)cc2Cl)nc1-c1c[nH]c(C(=O)N[C@H](CO)c2cccc(Cl)c2)c1, which % of inhibition [9] is on record?
Answer: 7%
